Source: patent US12171807B2, “Use of bremelanotide in patients with controlled hypertension” (Cosette Pharmaceuticals, Inc., priority 2020, dated 2024)

Assays:
[1] = Drug-drug interaction study with antihypertensive agents, single dose bremelanotide 1.75 mg SC vs placebo, ambulatory BP monitoring; format: in vivo, human
Protocol: An additional study evaluated the effects of single doses of bremelanotide 1.75 mg SC and placebo SC in normotensive, healthy women pre-treated with 5 different classes of antihypertensive drugs in a double-blind cross-over design using ambulatory BP monitoring. The washout period between randomized, blinded treatments was 48 hours. This study included both premenopausal and postmenopausal women. There were 15 healthy […] subjects in each panel of the antihypertensive medications with the exception of the beta-blocker metoprolol (n=17). Blood pressures at baseline in the various panels were low normal (24 hour systolic BPs ranging from 109 to 114 mmHg and 24 hour diastolic BPs ranging from 67 to 72 mmHg (FIG. 2). The placebo-corrected changes from baseline in the 24-hour systolic BPs on bremelanotide 1.75 mg SC ranged from 1.7 mmHg on amlodipine to 3.8 mmHg on hydrochlorothiazide; changes in the 24 hour diastolic BPs ranged from 1.8 mmHg on metoprolol to 2.8 mmHg on lisinopril. In 4 of the 5 classes of antihypertensive medications, nighttime BP changes were substantially lower than daytime BP changes. In study participants pre-treated with hydrochlorothiazide 12.5 mg daily, nighttime BPs increased by 5.5/4.5 mmHg. In review of individual subjects in the HCTZ panel, it was noted that 4 study participants had large reductions in nighttime SBP (10-15 mmHg) on placebo while on bremelanotide 4 study participants had large increases in nighttime SBP (10-15 mmHg).
1. […] There was an elevation in nighttime BP in patients pre-treated with hydrochlorothiazide 12.5 mg, which has no apparent pharmacologic basis and is like the result of random variability in both the bremelanotide and placebo sub-groups. As noted, there was no similar finding in the 4 other antihypertensive panels.

[2] = Repeat dosing ambulatory blood pressure monitoring study, bremelanotide 1.75 mg SC daily for 8 days then randomized withdrawal (days 9 to 16); format: in vivo, human; details: for mean change (95% CI) in daytime systolic BP: day 8; for Difference from Baseline, daytime diastolic BP at Day 8 / Difference from Baseline, daytime systolic BP at Day 8: BP in mmHg
Protocol: The study focusing on the impact of repeat dosing on blood pressure included 127 women treated with bremelanotide 1.75 mg administered subcutaneously (SC) daily for 8 consecutive days, followed by a randomized withdrawal period of 8 additional consecutive days (days 9 to 16) in which study participants were randomized to either remain on bremelanotide 1.75 mg SC daily or placebo SC daily. Ambulatory blood pressure monitoring was performed on baseline day −1 (single blind placebo), day 8 and on day 16. After 8 days of dosing of bremelanotide 1.75 mg SC, the mean changes from baseline in the 24 hour systolic and diastolic BPs (FIG. 1) were below 2 mmHg. Importantly, the upper bound of the 95% confidence interval for the mean changes in daytime systolic BP (a pre-specified outcome) was below 4 mmHg. These increases in BP were accompanied by small to no reductions in the heart rate of 1 beat/minute or less.
There were 122 (96%) study participants who completed the randomized withdrawal portion of the study. […] In those randomized to placebo, returns toward baseline BP values were observed (generally a 2 mmHg decline from day 8).
The patient population was comprised of normotensive premenopausal women and included 2 women with a medical history of hypertension on antihypertensive therapy. One subject was being treated for hypertension with Lisinopril. The other subject was being treated for hypertension with chlorthalidone. Both subjects received all 16 injections; 8 doses in the Open-Label Period and 8 doses in the Randomized Withdrawal Period (one subject was randomized to each treatment group). […] The mean changes from Baseline (Day −1) at Day 8 during daytime in these two subjects are shown in the below table. Changes in daytime HR at Day 8 were −1.7 bpm for the subject and −1.4 bpm for the subject.
In order to better understand the potential effects of the drug in patients with higher BP values at baseline, an exploratory analysis was performed from the trial evaluating those women whose baseline BP was in the 90th percentile (pre-dose systolic BP >124 mmHg) to determine if the pressor response of bremelanotide differed from those study participants whose baseline BP was below the 90th percentile (pre-dose systolic BP <124 mmHg). At day 8, mean changes (95% CI) from the daytime systolic BP in those study participants in the 90th percentile or greater (n=17) at baseline was −0.16 (−2.06, 1.75) mmHg versus 2.03 (1.70, 2.36) mmHg in those whose baseline systolic BP was below the 90th percentile.

[3] = repeat doses of BMT; review of IND 64119; cited from earlier work
[4] = Pressor effect in obese women receiving supratherapeutic doses (6.5 mg daily) for 15 days; format: in vivo, human; details: 15 days at 6.5 mg daily
[5] = Repeat dosing ambulatory blood pressure monitoring study, bremelanotide 1.75 mg SC daily for 8 days then randomized withdrawal (days 9 to 16); format: in vivo, human; details: after 16 days of dosing of bremelanotide 1.75 mg SC
[6] = Blood pressure by time post-dose, Bremelanotide 2 mg SC vs placebo; format: in vivo; details: 2 mg SC (n = 30)
[7] = single dose 1.75 mg SC, pre-treated with hydrochlorothiazide 12.5 mg daily
[8] = 2 women with history of hypertension on antihypertensive therapy
[9] = 61 women, 1.75 mg SC for 16 consecutive days
[10] = following 8 consecutive days of dosing
[11] = subject treated with Lisinopril
[12] = subject treated with chlorthalidone
[13] = subject with hypertension treated with Lisinopril, baseline (Day −1) 105/70 mmHg
[14] = subject with hypertension treated with chlorthalidone, baseline (Day −1) 121/81 mmHg

## CCCC[C@H](NC(C)=O)C(=O)N[C@H]1CC(=O)NCCCC[C@@H](C(=O)O)NC(=O)[C@H](Cc2c[nH]c3ccccc23)NC(=O)[C@H](CCCN=C(N)N)NC(=O)[C@@H](Cc2ccccc2)NC(=O)[C@H](Cc2cnc[nH]2)NC1=O [bremelanotide, Ac-Nle-cyclo(-Asp-His-D-Phe-Arg-Trp-Lys)-OH]
[1]; 4 study participants of the HCTZ panel on bremelanotide
  large increases in nighttime SBP in individual subjects: 10-15 mmHg
[1]; single dose 1.75 mg SC, healthy women on antihypertensive therapy at steady-state
  induction of hypertension by BP increases: did not induce hypertension
[1]; [7]
  nighttime BP increase, diastolic: 4.5 mmHg
  nighttime BP increase, systolic: 5.5 mmHg
[1]; single dose 1.75 mg SC, women pre-treated with amlodipine
  placebo-corrected change from baseline in 24-hour systolic BP: 1.7 mmHg
[1]; single dose 1.75 mg SC, women pre-treated with hydrochlorothiazide
  placebo-corrected change from baseline in 24-hour systolic BP: 3.8 mmHg
[1]; single dose 1.75 mg SC, women pre-treated with lisinopril
  placebo-corrected change from baseline in 24 hour diastolic BP: 2.8 mmHg
[1]; single dose 1.75 mg SC, women pre-treated with metoprolol
  placebo-corrected change from baseline in 24 hour diastolic BP: 1.8 mmHg
[2]; 1.75 mg SC daily
  outlier analysis: systolic BP elevation of >150 mmHg or diastolic BP elevation >95 mmHg lasting for 120 minutes: 1 (0.8%) study participants (%)
  outlier analysis: systolic BP elevation of >160 mmHg or diastolic BP elevation of >100 mmHg lasting more than 90 minutes: 2 (1.6%) study participants (%)
[2]; [8]
  abnormalities on ECG: neither subject had clinically significant abnormalities on ECG
  cardiovascular TEAE: No cardiovascular TEAE were reported
  intensity of TEAE: all were mild in intensity
[2]; [9]
  increases in 24 hour BP from placebo baseline (Day −1): < 1 mmHg
  increases in average daytime BPs from placebo baseline (Day −1): < 1.5 mmHg
[2]; 16 days of consecutive administration
  cumulative effect on daytime BP or heart rate compared to baseline or day 8: no cumulative increases in daytime BP or reductions in heart rate
[2]; after 8 days of 1.75 mg SC daily
  reductions in the heart rate: ≤ 1 beat/minute
[2]; after 8 days of 1.75 mg SC daily, 127 women
  mean change from baseline in 24 hour diastolic BP: below 2 mmHg
[2]; baseline BP in the 90th percentile or greater (pre-dose systolic BP >124 mmHg), n=17
  mean change (95% CI) in daytime systolic BP: −0.16 (−2.06, 1.75) mmHg
[2]; baseline systolic BP below the 90th percentile
  mean change (95% CI) in daytime systolic BP: 2.03 (1.70, 2.36) mmHg
[2]; [10]
  time of peak effects on BP post-dose: 3 to 5 h
  time post-dose by which BP effect attenuated: ≤ 8 h
[2]; following 8 days of consecutive therapy
  nighttime BP: no increases in nighttime BP
[2]; outlier subjects
  complications or symptoms associated with transient stage 2 hypertension levels: In none of these subjects were there complications or symptoms
[2]; [11]
  Change in daytime HR at Day 8: −1.7 bpm
  Difference from Baseline, daytime diastolic BP at Day 8: +4 diastolic
  Difference from Baseline, daytime systolic BP at Day 8: +3 systolic;
[2]; [12]
  Change in daytime HR at Day 8: −1.4 bpm
  Difference from Baseline, daytime diastolic BP at Day 8: −4 diastolic
  Difference from Baseline, daytime systolic BP at Day 8: −9 systolic;
[2]; [13]
  Day 8 Daytime BP, diastolic: 74 mmHg
  Day 8 Daytime BP, systolic: 108 mmHg
[2]; [14]
  Day 8 Daytime BP, diastolic: 77 mmHg
  Day 8 Daytime BP, systolic: 112 mmHg
[3]
  duration of blood pressure effect: at least four hours
  increases in systolic and diastolic blood pressures: approximately 4 mmHg
[4]
  cumulative effect on blood pressure or heart rate: no evidence for a cumulative effect on blood pressure or heart rate
[5]
  daytime systolic BP change by baseline BP percentile, trend: Trends were similar
[6]; Hour 1 post-dose
  Diastolic Blood Pressure: 1.00 (−3.13, 5.13)
  Systolic Blood Pressure: 2.36 (−2.15, 6.87)
[6]; Hour 2 post-dose
  Diastolic Blood Pressure: 1.03 (−2.96, 5.02)
  Systolic Blood Pressure: 0.01 (−4.18, 4.20)
[6]; Hour 3 post-dose
  Diastolic Blood Pressure: 1.26 (−2.74, 5.26)
  Systolic Blood Pressure: 0.84 (−3.55, 5.23)
[6]; Hour 4 post-dose
  Diastolic Blood Pressure: −1.38 (−6.00, 3.24)
  Systolic Blood Pressure: 0.38 (−3.13, 3.90)
